“Also recorded” adds a separate entry of the source. Where no end group is shown, it is not given here.
Experiments:
[1] = Hydrogelation by folding and self-assembly; type: physicochemical; conditions: pH 9, heating/cooling cycles
Protocol: The ability of MAX1 to undergo hydrogelation is dependent upon its unimolecular folded state. Under basic aqueous solution conditions (pH 9.0, 125 mM Borate, 10 mM NaCl), where some of the lysine side chains of MAX1 are neutral, this peptide intramolecularly folds into an amphiphilic β-hairpin (folding can also be triggered at pH 7 under physiological conditions). One face of the hairpin is lined with hydrophobic valine residues while the other face is lined with hydrophilic lysine residues, FIGS. 2 and 3A. After intramolecular folding, subsequent self-assembly of hairpins is facilitated (a) laterally via H-bond formation and attractive hydrophobic interactions between distinct hairpins as well as (b) facially by hydrophobic association of the valine-rich faces of the folded peptide resulting in hydrogelation, FIG. 3B. Since the charged state of the lysine residues are controlled by pH, the unimolecular folding is reversible. Lowering the pH below the intrinsic pKa of the lysine side chains results in intra-strand charge repulsion from neighboring lysines and subsequent unfolding of individual hairpins, ultimately dissolving the self-assembled hydrogel structure. This reversible behavior is unique when compared to β-sheet-rich hydrogels prepared from classical fibril-based designs. In these systems, the self-assembly process is irreversible.
There are reports of large polymers that are thermally responsive. The present invention provides the first system that employs temperature triggered folding to induce self-assembly. […] Heating the solution to 80° C. results in a spectra consistent with β-sheet structure. […] The temperatures used in both CD and rheology bracket the temperature (Tgel=60° C., FIG. 9) at which folding and consequent self-assembly is triggered. […] For example, free flowing peptide solutions could be prepared at room temperature and administered in vivo where the temperature of the body could induce gelation. Some Poly-N-isopropylacrylamide polymers have been engineered have been engineered to undergo such transitions ultimately affording extracellular-like scaffolds for tissue regeneration. The above studies support the idea that the formation of hydrophobic interactions are important. MAX1-3 all contain valines and threonines at hydrogen bonded positions. At these positions, their side chains prefer to adopt a trans rotamer. As a result, hydrophobic residues that oppose each other across the hairpin point their side chains in opposite directions thus making the formation of intramolecular hydrophobic interactions across the strands difficult, FIG. 11A. However, these side chains are nicely positioned to interact laterally with the hydrophobic side chains of neighboring hairpins in the self-assembled state, FIG. 11B. Forming these lateral hydrophobic interactions should favor self-assembly. […] In MAX4, opposing valine side chains are expected to point towards each other, FIG. 11B. Thus, the valine side chains of MAX4 are less likely than those in MAX1 to form lateral intermolecular hydrophobic interactions. If the formation of lateral intermolecular hydrophobic interactions is of more importance for self-assembly than intramolecular hydrophobic contacts, then the rate of self-assembly should be faster for MAX1 than for MAX4. This difference in rate should be evident in the rate of storage moduli (rigidity) increase. […] (Tgel=20° C. for both peptides). […]

NIH 3T3 fibroblasts = test: 3H thymidine cell seeding / proliferation assay; type: cell-based, mouse; conditions: 2 wt. % hydrogel, 48 hours
From the text: A quantitative assay that could be used to measure the rate of cell proliferation was developed. This allows gels having different material properties and constituent peptide sequences to be compared in terms of how well they support proliferation. Standard colorimetric assays such as the MTT and XTT have proven unsuitable for use with hydrogels of the invention. These assays rely on the ability of cells to metabolize tetrazolium derivatives to their corresponding colored formazan analogs. The analogs permeate into the hairpin hydrogel and become immobilized making subsequent quantification by UV spectroscopy unreliable. This problem has been addressed by utilizing ^3H thymidine-based assays in which thymidine is incorporated into proliferating cells undergoing DNA replication. […] The assay is two-fold. […] Second, a proliferation rate may be determined for a given material by seeding the cells (at optimal density) onto the material and determining the number of cells undergoing DNA replication at discrete time points up to 48 hours when confluency is reached. […] Unincorporated thymidine may be washed out (washes may be assayed until ^3H thymidine is no longer detected) and the cells sacrificed for scintillation counting. […] Therefore, for each new material, similar cell seeding experiments may be performed before rates of proliferation are determined. […]

With “VKVKVKVK V^DPPT KVKVKVKV-NH2 (not fully specified (C-terminus)) [MAX1]” the “reversibility of thermally induced hydrogelation” value [1] was “not reversible”, the “optimal cell seeding density for 2 day proliferation assays” value (NIH 3T3 fibroblasts) was 40,000 fibroblasts and the “cell proliferation on hydrogel versus tissue culture polystyrene control” value (NIH 3T3 fibroblasts; 3H thymidine counts) was “more cells have grown on the hydrogel than on the control surface; also recorded: higher than the control”.

From US8221773B2, “Hydrogels and uses thereof” (University of Delaware, priority 2004, dated 2012)
